We go through one compound from US20170056351A1, “COMPOSITION FOR INDUCING TUMOR IMMUNITY” (UNIVERSITY OF OCCUPATIONAL AND ENVIRONMENTAL HEALTH, JAPAN, priority 2014, published 2017).

The test system of series [1] is 9L cells. Description: Cellular ROS levels after ionizing irradiation (DCFD, flow cytometry), 9L. Type of series: cell-based, rat. As to conditions: for relative MFI of DCF fluorescence 12 hours after ionizing irradiation, timing study: 10 Gy. Here is the method: (§1) Intracellular ROS production was evaluated using the oxidant-sensitive fluorescence probe DCFD and flow cytometry (Yamamori T, Yasui H, Yamazumi M, et al: Ionizing radiation induces mitochondrial reactive oxygen species production accompanied by upregulation of mitochondrial electron transport chain function and mitochondrial content under control of the cell cycle checkpoint. Free Radic Biol Med 53: 260-270, 2012.). The cells were seeded on a 100-mm culture dish, and using an X-ray irradiation apparatus (MBR-1520R; Hitachi, Tokyo, Japan) (0.67 Gy/min), the cells were then irradiated with a radiation of 10 Gy in a dark room. During the ionizing irradiation, the culture dish was maintained at a room temperature in a dark container. In the case of a 5-ALA and ionizing irradiation group (RT,12 h+ALA), the cells were treated with 1 mM 5-ALA for 4 hours, then, immediately after the treatment, the cells were irradiated with ionizing radiation, and were then incubated together with 10 μM DCFD at 37° C. for 15 minutes, followed by washing with PBS twice. Thereafter, as described above, the cells were analyzed using a flow cytometer (excitation: 488 nm; radiation: 525/50 nm band-pass filter). Control cells were not exposed to ionizing radiation or 5-ALA. In a 5-ALA group, the cells were treated with 1 mM 5-ALA for 4 hours, but were not exposed to ionizing radiation. The control cells and the cells of the 5-ALA group were treated with DCFD in the same manner as described above. In order to prevent the photoactivation of 5-ALA-induced PpIX and DCFD, all procedures were carried out in a dark room. The flow cytometric data were analyzed using FlowJo (Tree Star Inc., Ashland, Oreg., USA). The MFI of the DCF fluorescence in the cells, with respect to that in control cells, was calculated for each cell line.
(§2) The cells were seeded on a 100-mm culture dish, and were then exposed to an ionizing radiation of 10 Gy. The incubation time (4 h) of 1 mM 5-ALA was the same among individual groups, and three types of 5-ALA treatment times were initiated: i) 5-ALA treatment immediately before ionizing irradiation [RT+ALA (pre) group]; ii) 5-ALA treatment immediately after ionizing irradiation [RT+ALA (4 h) group]; and iii) 5-ALA treatment 8 hours after ionizing irradiation [RT+ALA (12 h) group]. In each group, twelve hours after the ionizing irradiation, the cells were incubated together with 10 μM DCFD at 37° C. for 15 minutes, and were then washed with PBS twice. Immediately after the washing, as described above, DCF fluorescence was analyzed using a flow cytometer. Control cells were not treated with ionizing radiation or 5-ALA. In a group involving only ionizing irradiation (RT), the cells were exposed to ionizing radiation, without performing 5-ALA treatments, and were then treated with DCFD twelve hours after the exposure to the ionizing radiation in the same manner as described above. All procedures were carried out in a dark room. The flow cytometric data were analyzed using FlowJo software. The MFI of the DCF fluorescence in the cells, with respect to that in control cells, was calculated for each cell line.
On the technique in general: A flow cytometer gives signals particle by particle.

The subject of series [2] is 9L cells. Description: Intracellular level of 5-ALA-induced PpIX by flow cytometric analysis, 9L. Type of series: cell-based, rat. The following applies: average±SE. Here is the method: Two types of rat glioma cell lines (9L and C6) and human glioma cell lines (U251 and T98G) were used. Before use, 9L and T98G were cultured in RPMI-1640 at 37° C. for several days, whereas C6 and U251 were cultured in 10% FBS-added Dulbecco's modified Eagle's medium (DMEM) at 37° C. for several days. These cell lines were maintained at 37° C. in 5% CO2 in a humidified incubator. The cells were subcultured at an exponential growth phase thereof, using 0.05% trypsin solution containing 0.5 mM ethylenediamine tetraacetate. 70% confluent cells were used in the subsequent experiments. 5-ALA was dissolved in RPMI-1640 (9L and T98G), or in 10% FBS-added DMEM (C6 and U251), to a final concentration of 1 mM.
(§3) The cells were seeded on a 100-mm culture dish, and were then cultured. The cells were incubated in a complete medium containing 1 mM 5-ALA for 4 hours, and were then washed with PBS. The resulting cells were peeled from the bottom layer by a trypsin treatment, and were then recovered by centrifugation (400×g, 3 min, and 4° C.). Immediately after the recovery, the cells were re-suspended in cold PBS/FBS, and were then analyzed using a flow cytometer (EC800; Sony Biotechnology, Tokyo, Japan). Generally, 30,000 cells contained in each sample were evaluated. Using 488-nm argon ion laser, fluorescence was excited from intracellular PpIX, and the fluorescence was then detected using a 640/30 nm band-pass filter. In order to prevent photoactivation of 5-ALA-induced PpIX, all procedures were carried out in a dark room. The flow cytometric data were analyzed using FlowJo (Tree Star Inc., Ashland, Oreg., USA). The mean fluorescence intensity (MFI) of PpIX fluorescence in the 5-ALA-treated cells, with respect to that of 5-ALA-not-treated cells, was calculated for each cell line.

The subject of the next series is U251 cells. In words: Cellular ROS levels after ionizing irradiation (DCFD, flow cytometry), U251. Type of series: cell-based, human. The following applies: for relative MFI of DCF fluorescence 12 hours after ionizing irradiation, timing study: 10 Gy. Here is the method: as §1, §2
The conditions of series [3]: living body; cited from earlier work.
In a further series the test system is T98G cells. In words: Intracellular level of 5-ALA-induced PpIX by flow cytometric analysis, T98G. It is filed as cell-based, human. As to conditions: 1 mM 5-ALA for 4 hours, relative to 5-ALA-not-treated cells, average±SE. Here is the method:
Two types of rat glioma cell lines (9L and C6) and human glioma cell lines (U251 and T98G) were used. Before use, 9L and T98G were cultured in RPMI-1640 at 37° C. for several days, whereas C6 and U251 were cultured in 10% FBS-added Dulbecco's modified Eagle's medium (DMEM) at 37° C. for several days. These cell lines were maintained at 37° C. in 5% CO2 in a humidified incubator. The cells were subcultured at an exponential growth phase thereof, using 0.05% trypsin solution containing 0.5 mM ethylenediamine tetraacetate. 70% confluent cells were used in the subsequent experiments. […]
as §3, with “The cells were incubated in a complete medium containing 1 mM 5-ALA for 4 hours, and were then washed with PBS. The resulting cells were peeled from the bottom layer by a trypsin treatment, and were then recovered by centrifugation (400×g, 3 min, and 4° C.).” left out, “In order to prevent photoactivation of 5-ALA-induced PpIX, all procedures were carried out in a dark room.” left out

The mark [4] stands for this setting: 1 mM 5-ALA 4 hours, without ionizing irradiation, relative to control cells, average±SE.
[5] abbreviates: 5-ALA treatment 8 hours after ionizing irradiation, RT+ALA (12 h) group.
[6] abbreviates: 5-ALA treatment immediately after ionizing irradiation, RT+ALA (4 h) group.
Where [7] appears, read: 5-ALA treatment immediately before ionizing irradiation, RT+ALA (pre) group.

Regarding `NCC(=O)CCC(=O)O` [ALA, 5-aminolevulinic acid], the “relative MFI of DCF fluorescence (cellular ROS)” value in the series on 9L cells [1] (setting [4]) turned out to be 1.19±0.07; with 9L cells [1] (12 hours after 10 Gy ionizing irradiation with 5-ALA pre-treatment (1 mM, 4 hours), p=0.009 vs RT 12 h) it was 1.91±0.19; in the series with U251 cells (setting [4]), 0.87±0.06; in the series on U251 cells (12 hours after 10 Gy ionizing irradiation with 5-ALA pre-treatment (1 mM, 4 hours), p=0.031 vs RT 12 h), 1.51±0.10. Moreover, the “relative MFI of DCF fluorescence 12 hours after ionizing irradiation, timing study” value in the series on 9L cells [1] (setting [5]) stood at 1.58±0.11; in the series on 9L cells [1] (setting [6]) it was 1.57±0.05; in the series on 9L cells [1] (setting [7]), 1.93±0.10; with U251 cells (setting [5]), 1.38±0.05; with U251 cells (setting [6]), 1.43±0.02; in the series on U251 cells (setting [7]), 1.44±0.02. Besides, the “relative MFI of PpIX fluorescence” value with 9L cells [2] (1 mM 5-ALA for 4 hours, relative to 5-ALA-not-treated cells) was found to be 21.5±0.12; with T98G cells, 15.3±0.89. Besides, the figures for the “relative MFI of PpIX fluorescence after ionizing irradiation” value in the series with 9L cells [2] (4 hours after ionizing irradiation), with 9L cells [2] (12 hours after ionizing irradiation) and in the series on 9L cells [2] (24 hours after ionizing irradiation) were 15.2±0.15, 15.9±0.73 and 13.4±2.43, respectively. Moreover, the “time until ALA is metabolized and discharged from the body” value in series [3] was ≤ 48 h.
